Data as given in ChEMBL document CHEMBL1201861, “Genomics of Drug Sensitity in Cancer screening data, Wellcome Trust Sanger Institute”.

Assays:
Assay in all cases: cells
PANC-03-27 = assay type: functional, cell-based; conditions: Homo sapiens
Description: SANGER: Inhibition of human PANC-03-27 cell growth in a cell viability assay.

HuCCT-1 = assay type: functional, cell-based, HuCCT1; conditions: Homo sapiens;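 also: growth inhibition of HuCCT-1 cells, read out by a cell viability assay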
Description: SANGER: Inhibition of human HuCCT1 cell growth in a cell viability assay.

SW48 = assay type: functional, cell-based; conditions: Homo sapiens;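 also: growth inhibition of SW48 cells, read out with a cell viability assay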
Description: SANGER: Inhibition of human SW48 cell growth in a cell viability assay.

DU-145 = assay type: functional, cell-based; conditions: Homo sapiens
Description: SANGER: Inhibition of human DU-145 cell growth in a cell viability assay.

8305C = assay type: functional, cell-based; conditions: Homo sapiens
Description: SANGER: Inhibition of human 8305C cell growth in a cell viability assay.

MCF7 = assay type: functional, cell-based; conditions: Homo sapiens;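 also: growth inhibition of human MCF7 cells, read out with a cell viability assay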
Description: SANGER: Inhibition of human MCF7 cell growth in a cell viability assay.

IGROV-1 = assay type: functional, cell-based; conditions: Homo sapiens;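 also: reduction of IGROV-1 cell growth, read out with a viability assay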
Description: SANGER: Inhibition of human IGROV-1 cell growth in a cell viability assay.

T47D = assay type: functional, cell-based; conditions: Homo sapiens;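 also: growth inhibition of human T47D cells, measured with a cell viability assay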
Description: SANGER: Inhibition of human T47D cell growth in a cell viability assay.

HCC1954 = assay type: functional, cell-based; conditions: Homo sapiens;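 also: growth inhibition of human HCC1954 cells, read out with a cell viability assay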
Description: SANGER: Inhibition of human HCC1954 cell growth in a cell viability assay.

CP50-MEL-B = assay type: functional, cell-based; conditions: Homo sapiens;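 also: growth inhibition of the human cell line, measured with a cell viability read-out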
Description: SANGER: Inhibition of human CP50-MEL-B cell growth in a cell viability assay.

SW1710 = assay type: functional, cell-based; conditions: Homo sapiens;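 also: growth inhibition of SW1710 cells, determined with a cell viability assay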
Description: SANGER: Inhibition of human SW1710 cell growth in a cell viability assay.

NY = assay type: functional, cell-based; conditions: Homo sapiens
Description: SANGER: Inhibition of human NY cell growth in a cell viability assay.

OVCAR-3 = assay type: functional, cell-based; conditions: Homo sapiens;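 also: growth inhibition of human OVCAR-3 cells, determined by a cell viability assay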
Description: SANGER: Inhibition of human OVCAR-3 cell growth in a cell viability assay.

HCC1569 = assay type: functional, cell-based; conditions: Homo sapiens;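 also: growth inhibition of human HCC1569 cells, read out with a cell viability assay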
Description: SANGER: Inhibition of human HCC1569 cell growth in a cell viability assay.

BFTC-909 = assay type: functional, cell-based; conditions: Homo sapiens
Description: SANGER: Inhibition of human BFTC-909 cell growth in a cell viability assay.

NCI-H2228 = assay type: functional, cell-based; conditions: Homo sapiens;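 also: growth inhibition of human NCI-H2228 cells, read out by a cell viability assay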
Description: SANGER: Inhibition of human NCI-H2228 cell growth in a cell viability assay.

HOS = assay type: functional, cell-based; conditions: Homo sapiens;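 also: growth inhibition of human HOS cells, read out with a cell viability assay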
Description: SANGER: Inhibition of human HOS cell growth in a cell viability assay.

HCC38 = assay type: functional, cell-based; conditions: Homo sapiens;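 also: cell viability assay on the human HCC38 cell line, with IC50 marking the concentration that inhibits cell growth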
Description: SANGER: Inhibition of human HCC38 cell growth in a cell viability assay.

CHP-212 = assay type: functional, cell-based; conditions: Homo sapiens
Description: SANGER: Inhibition of human CHP-212 cell growth in a cell viability assay.

CHL-1 = assay type: functional, cell-based; conditions: Homo sapiens;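 also: cell growth inhibition, read out with a cell viability assay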
Description: SANGER: Inhibition of human CHL-1 cell growth in a cell viability assay.

NCI-H1793 = assay type: functional, cell-based; conditions: Homo sapiens;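 also: cell growth inhibition, read out by a cell viability assay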
Description: SANGER: Inhibition of human NCI-H1793 cell growth in a cell viability assay.

CAL-12T = assay type: functional, cell-based; conditions: Homo sapiens;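 also: growth inhibition of human CAL-12T cells, read out with a cell viability assay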
Description: SANGER: Inhibition of human CAL-12T cell growth in a cell viability assay.

786-0 = assay type: functional, cell-based; conditions: Homo sapiens
Description: SANGER: Inhibition of human 786-0 cell growth in a cell viability assay.

RPMI-2650 = assay type: functional, cell-based; conditions: Homo sapiens
Description: SANGER: Inhibition of human RPMI-2650 cell growth in a cell viability assay.

SBC-5 = assay type: functional, cell-based; conditions: Homo sapiens;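 also: cell viability assay read-out, IC50 is the concentration that inhibits growth of the cells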
Description: SANGER: Inhibition of human SBC-5 cell growth in a cell viability assay.

MG-63 = assay type: functional, cell-based; conditions: Homo sapiens;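 also: growth inhibition of human MG-63 cells, read out with a cell viability assay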
Description: SANGER: Inhibition of human MG-63 cell growth in a cell viability assay.

BFTC-905 = assay type: functional, cell-based; conditions: Homo sapiens
Description: SANGER: Inhibition of human BFTC-905 cell growth in a cell viability assay.

COLO-678 = assay type: functional, cell-based; conditions: Homo sapiens
Description: SANGER: Inhibition of human COLO-678 cell growth in a cell viability assay.

NB7 = assay type: functional, cell-based, Homo sapiens; conditions: Homo sapiens, NB7;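 also: growth inhibition of NB7 cells, read out with a cell viability assay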
Description: SANGER: Inhibition of human NB7 cell growth in a cell viability assay.

NCI-H1623 = assay type: functional, cell-based; conditions: Homo sapiens;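 also: cell viability assay used as the read-out for growth inhibition of NCI-H1623 cells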
Description: SANGER: Inhibition of human NCI-H1623 cell growth in a cell viability assay.

HN = assay type: functional, cell-based; conditions: Homo sapiens
Description: SANGER: Inhibition of human HN cell growth in a cell viability assay.

KYSE-150 cell line = assay type: functional, cell-based; conditions: Homo sapiens;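 also: growth inhibition of human KYSE-150 cells, read out with a cell viability assay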
Description: SANGER: Inhibition of human KYSE-150 cell growth in a cell viability assay.

JEG-3 = assay type: functional, cell-based; conditions: Homo sapiens;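 also: growth inhibition of human JEG-3 cells, read out with a cell viability assay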
Description: SANGER: Inhibition of human JEG-3 cell growth in a cell viability assay.

OE19 = assay type: functional, cell-based; conditions: Homo sapiens;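 also: growth inhibition of OE19 cells, measured through a cell viability read-out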
Description: SANGER: Inhibition of human OE19 cell growth in a cell viability assay.

PANC-08-13 = assay type: functional, cell-based; conditions: Homo sapiens;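 also: cell growth inhibition, measured with a cell viability assay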
Description: SANGER: Inhibition of human PANC-08-13 cell growth in a cell viability assay.

SAOS-2 = assay type: functional, cell-based; conditions: Homo sapiens;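 also: growth inhibition of human Saos-2 cells determined by a cell viability assay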
Description: SANGER: Inhibition of human Saos-2 cell growth in a cell viability assay.

HLE = assay type: functional, cell-based; conditions: Homo sapiens;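 also: growth inhibition of human HLE cells, read out by a cell viability assay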
Description: SANGER: Inhibition of human HLE cell growth in a cell viability assay.

COLO-741 = assay type: functional, cell-based; conditions: Homo sapiens
Description: SANGER: Inhibition of human COLO-741 cell growth in a cell viability assay.

FTC-133 = assay type: functional, cell-based; conditions: Homo sapiens
Ca-Ski = assay type: functional, cell-based; conditions: Homo sapiens;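 also: cell viability assay measuring inhibition of Ca-Ski cell growth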
Description: SANGER: Inhibition of human Ca-Ski cell growth in a cell viability assay.

647-V = assay type: functional, cell-based; conditions: Homo sapiens;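 also: growth inhibition of 647-V cells, read out with a cell viability assay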
Description: SANGER: Inhibition of human 647-V cell growth in a cell viability assay.

GAMG = assay type: functional, cell-based; conditions: Homo sapiens;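 also: cell growth inhibition measured by a viability assay in the GAMG human cell line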
Description: SANGER: Inhibition of human GAMG cell growth in a cell viability assay.

CAL-51 = assay type: functional, cell-based; conditions: Homo sapiens;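 also: human CAL-51 cell line, growth inhibition read out via a cell viability assay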
Description: SANGER: Inhibition of human CAL-51 cell growth in a cell viability assay.

U-118-MG = assay type: functional, cell-based; conditions: Homo sapiens
Description: SANGER: Inhibition of human U-118-MG cell growth in a cell viability assay.

BCPAP = assay type: functional, cell-based; conditions: Homo sapiens;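 also: growth inhibition of BCPAP cells, read out in a cell viability assay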
Description: SANGER: Inhibition of human BCPAP cell growth in a cell viability assay.

UO-31 = assay type: functional, cell-based; conditions: Homo sapiens;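 also: cell viability assay measuring inhibition of cell growth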
Description: SANGER: Inhibition of human U031 cell growth in a cell viability assay.

NCI-H2030 = assay type: functional, cell-based; conditions: Homo sapiens;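 also: growth inhibition of human NCI-H2030 cells, read out by a cell viability assay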
Description: SANGER: Inhibition of human NCI-H2030 cell growth in a cell viability assay.

Measured: IC50

CO[C@@H]1[C@H](N(C)C(=O)c2ccccc2)C[C@H]2O[C@]1(C)n1c3ccccc3c3c4c(c5c6ccccc6n2c5c31)C(=O)NC4 [MIDOSTAURIN]
0.319 µM: DU-145
0.333 µM: MCF7
0.179 µM: HuCCT-1
> 0.512 µM: 8305C | IGROV-1 | T47D
0.16 µM: PANC-03-27
0.267 µM: SW48

NC1(c2ccc(-c3nc4ccn5c(=O)[nH]nc5c4cc3-c3ccccc3)cc2)CCC1 [MK-2206]
0.552 µM: IGROV-1
1.5 µM: HOS
0.282 µM: T47D
0.824 µM: NB7
2.86 µM: MCF7
0.647 µM: DU-145
3.47 µM: SW1710
2.24 µM: GAMG
2.32 µM: NCI-H2228
3.41 µM: OVCAR-3 | NCI-H1623
not listed: UO-31 | NCI-H2030
> 4 µM: all other assays above

CN(C)CCOc1ccc(-c2nc(-c3ccncc3)c(-c3ccc4c(c3)CC/C4=N\O)[nH]2)cc1 [SB590885]
1.73 µM: CP50-MEL-B
> 5 µM: all other assays above
